Assay results published in US10202343B2, “MIF modulators” (YALE UNIVERSITY, priority 2008, dated 2019).
Read-outs that look alike come from different tables or passages of the source. One block for each molecule: values may come before it.

Experiments:
[1] = biological target: T1, Human MIF (MIF tautomerase activity) (Homo sapiens, UniProt P14174); test: HPP tautomerase assay; format: biochemical; conditions: for IC50: read-out: HPP IC50
T1 construct: made in house
T1 sequence (P14174 2-115 limits assumed): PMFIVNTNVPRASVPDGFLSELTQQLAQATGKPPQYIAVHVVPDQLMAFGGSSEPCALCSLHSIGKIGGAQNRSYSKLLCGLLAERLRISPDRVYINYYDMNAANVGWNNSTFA

[2] = biological target: T2, MIF-CD74 Binding (biotin-labeled recombinant human MIF, recombinant human MIF receptor CD74 ectodomain) (Homo sapiens, UniProt P14174); test: MIF-CD74 binding (capture) assay; conditions: for CD74 % MaxInhib: number before @; for Capture IC50 / Capture % Max. Inhib.: Table 3
T2 sequence (P14174 2-115 limits assumed): T1 sequence (P14174 2-115 limits assumed)

[3] = Table 2, read-out: MIF-CD74 IC50

- IC50 ([1]; Table 1): 3.4 µM
- concentration of CD74 % MaxInhib (number after @) ([2]; Table 4): 1.87 µM
- CD74 % MaxInhib ([2]; Table 4): 25%
Compound: Cc1ccc2c(c1)oc(=O)n2Cc1ccccc1 [Compound 2, 3-benzyl-6-methyl-3H-benzooxazol-2-one]

- concentration of HPP Max Inhib (number after @) ([1]; Table 4): > 500 µM
- HPP Max Inhib ([1]; Table 4, number before @): 41%
- concentration of CD74 % MaxInhib (number after @) ([2]; Table 4): 1.87 µM
Compound: COc1cccc(Cn2c(=O)oc3ccc(OC)cc32)c1 [Compound 3, 5-methoxy-3-(3-methoxy-benzyl)-3H-benzooxazol-2-one]

- HPP Max Inhib ([1]; Table 1): 44%
- concentration of HPP Max Inhib (number after @) ([1]; Table 4): 200 µM
- concentration of CD74 % MaxInhib (number after @) ([2]; Table 4): 0.039 µM
- CD74 % MaxInhib ([2]; Table 4): 27%
Compound: COc1cccc(Cn2c(=O)oc3ccc(CO)cc32)c1 [Compound 4, 5-hydroxymethyl-3-(3-methoxy-benzyl)-3H-benzooxazol-2-one]

- IC50 ([1]; Table 1): 2.9 µM
- concentration of CD74 % MaxInhib (number after @) ([2]; Table 4): 1.87 µM
- CD74 % MaxInhib ([2]; Table 4): 42%
Compound: COc1cccc(Cn2c(=O)oc3ccc(C)cc32)c1 [Compound 5]

- concentration of CD74 % MaxInhib (number after @) ([2]; Table 4): 0.039 µM
Compound: COc1ccccc1Cn1c(=O)oc2ccc(F)cc21 [Compound 10]

- HPP Max Inhib ([1]; Table 1): 28%
- concentration of HPP Max Inhib (number after @) ([1]; Table 4): 5 µM
- concentration of CD74 % MaxInhib (number after @) ([2]; Table 4): 0.039 µM
- CD74 % MaxInhib ([2]; Table 4): 22%
Compound: O=c1oc2cc(O)ccc2n1Cc1ccccc1 [Compound 14]

- concentration of HPP Max Inhib (number after 'at') ([1]; Table 5): 5 µM
- concentration of CD74 % MaxInhib (number after @) ([2]; Table 5): 0.039 µM
- IC50 ([2]; Table 5, read-out: CD74 IC50): > 1000 µM
Compound: c1ccc(Cn2c(-c3cscn3)nc3ccccc32)cc1 [Compound 17, 4-(1-benzyl-1H-benzo[d]imidazol-2-yl)thiazole]

- concentration of CD74 % MaxInhib (number after @) ([2]; Table 5): 0.078 µM
Compound: N#Cc1nc2ccccc2n1Cc1ccccc1 [Compound 18, 1-Benzyl-1H-benzoimidazole-2-carbonitrile]

- HPP Max. Inhib. ([1]; Table 2): 38%
- concentration of CD74 % MaxInhib (number after @) ([2]; Table 5): 1.87 µM
- CD74 % MaxInhib ([2]; Table 5): 40%
Compound: c1ccc(Cn2c(Cc3ccccn3)nc3ccccc32)cc1 [Compound 19]

- concentration of CD74 % MaxInhib (number after @) ([2]; Table 13): 0.058 µM
Compound: O=C(c1cc2ccccc2o1)c1cc2ccccc2o1 [Compound 20, bisbenzofuran-2-yl methanone]

- IC50 ([1]; Table 5): 3 µM
- IC50 [2, 3]: 4 µM
- IC50 ([2]; Table 5, read-out: CD74 IC50): 4 µM
- IC50 ([2]; Table 14, read-out: CD74 IC50): 4 µM
Compound: O=C(c1cc2ccccc2o1)N1CCc2ccccc21 [Compound 21]

- IC50 ([1]; Table 15): 730 µM
- IC50 [2, 3]: 2.5 µM
- IC50 ([2]; Table 5, read-out: CD74 IC50): 2.5 µM
- IC50 ([2]; Table 15, read-out: CD74 IC50): 2.5 µM
Compound: CC(=O)Oc1ccc2nc(-c3cc4ccccc4o3)oc(=O)c2c1 [Compound 22]

- IC50 [2, 3]: 1500 µM
- IC50 ([2]; Table 5, read-out: CD74 IC50): 1500 µM
- IC50 ([2]; Table 16, read-out: CD74 IC50): 1500 µM
Compound: O=C(O)COc1ccc2occ(C(=O)c3ccccc3)c2c1 [Compound 23]

- IC50 [2, 3]: 5000 µM
- IC50 ([2]; Table 5, read-out: CD74 IC50): 5000 µM
- IC50 ([2]; Table 22, read-out: CD74 IC50): 5000 µM
Compound: c1ccc(COc2ccc3cc(-c4cc[nH]c4)[nH]c3c2)cc1 [Compound 24]

Compound: O=c1c2ccc(F)cc2sn1-c1ccc(Cl)cc1 [Compound 25]
- IC50 ([1]; Table 2): 4.2 µM
- activity in the capture assay [2]: agonist behavior
- MIF-CD74 IC50 ([2]; Table 2): agonist
- CD74 IC50 ([2]; Table 5): agonist

Compound: O=c1c2ccc(F)cc2sn1-c1ccc(Cl)cc1 [Compound 26]
- IC50 ([1]; Table 3): 4.2 µM
- IC50 ([1]; Table 6, data cell c7): 4.2 µM
- Capture IC50 [2]: agonist
- CD74 IC50 ([2]; Table 6, data cell c9): agonist

- IC50 ([1]; Table 3): 6.2 µM
Compound: COc1ccc(-n2sc3cc(F)ccc3c2=O)cc1 [Compound 27]

Compound: COc1cccc(-n2sc3cc(F)ccc3c2=O)c1 [Compound 28]
- IC50 ([1]; Table 3): 25 µM
- IC50 ([1]; Table 6, data cell c7): 25 µM

Compound: O=c1c2ccc(F)cc2sn1-c1cccc(CO)c1 [Compound 29]
- Capture % Max. Inhib. [2]: 8%
- CD74 % MaxInhib ([2]; Table 6, data cell c8): 8%

Compound: O=c1c2cc(F)ccc2sn1-c1ccc(Cl)cc1 [Compound 30]
- Capture % Max. Inhib. [2]: 7%
- CD74 % MaxInhib ([2]; Table 6, data cell c8): 7%

Compound: COc1ccccc1-n1sc2ccc(Cl)cc2c1=O [Compound 31]
- IC50 ([1]; Table 3): 6.6 µM
- IC50 ([1]; Table 6, data cell c7): 6.6 µM
- Capture % Max. Inhib. [2]: 7%
- CD74 % MaxInhib ([2]; Table 6, data cell c8): 7%

Compound: O=c1c2cc(F)ccc2sn1-c1cccc(O)c1 [Compound 32]
- IC50 ([1]; Table 3): 5.9 µM
- IC50 ([1]; Table 6, data cell c7): 5.9 µM
- Capture % Max. Inhib. [2]: 13%
- CD74 % MaxInhib ([2]; Table 6, data cell c8): 13%

Compound: CC(=O)OCc1cccc(-n2sc3cc(F)ccc3c2=O)c1 [Compound 33]
- IC50 ([1]; Table 3): 2.3 µM
- IC50 ([1]; Table 6, data cell c7): 2.3 µM
- Capture % Max. Inhib. [2]: 12%
- CD74 % MaxInhib ([2]; Table 6, data cell c8): 12%

Compound: O=c1c2cc([N+](=O)[O-])ccc2sn1-c1ccc(Cl)cc1 [Compound 34]
- IC50 ([1]; Table 3): 6.2 µM
- IC50 ([1]; Table 6, data cell c7): 6.2 µM
- Capture % Max. Inhib. [2]: 11%
- CD74 % MaxInhib ([2]; Table 6, data cell c8): 11%

Compound: O=c1c2cc(C(F)(F)F)ccc2sn1-c1ccc(Cl)cc1 [Compound 35]
- Capture % Max. Inhib. [2]: 12%
- CD74 % MaxInhib ([2]; Table 6, data cell c8): 12%

Compound: O=c1c2ccc(Br)cc2sn1-c1ccc(Cl)cc1 [Compound 36]
- IC50 ([1]; Table 3): 11 µM
- IC50 ([1]; Table 6, data cell c7): 11 µM
- Capture % Max. Inhib. [2]: 10%
- CD74 % MaxInhib ([2]; Table 6, data cell c8): 10%

Compound: COc1cccc(-n2sc3ccc(F)cc3c2=O)c1 [Compound 38]
- IC50 ([1]; Table 3): 8 µM
- IC50 ([1]; Table 6, data cell c7, listed as MIF-113): 8 µM
- Capture IC50 [2]: agonist
- CD74 IC50 ([2]; Table 6, data cell c9): agonist

Compound: O=c1c2cc(Br)ccc2sn1-c1ccc(Cl)cc1 [Compound 39]
- IC50 ([1]; Table 3): 7.9 µM
- IC50 ([1]; Table 6, data cell c7): 7.9 µM

Compound: N#Cc1ccc2sn(-c3ccc(Cl)cc3)c(=O)c2c1 [Compound 40]
- IC50 ([1]; Table 3): 19 µM
- IC50 ([1]; Table 6, data cell c7): 19 µM
- Capture IC50 [2]: agonist
- CD74 IC50 ([2]; Table 6, data cell c9): agonist
